Laboratory results published in patent publication US9815835B2, “Substituted polycyclic carbamolypyridone derivative” (priority 2009, dated 2017).

Legend:
[1] = molecular target: cap-dependent endonuclease (RNP fraction containing PB1•PB2•PA complex) (Influenza A virus, UniProt P15659); assay: biochemical; conditions: RNP from A/WSN/33 virus, capped Cy3/BHQ2 30mer RNA substrate, 60 minutes at room temperature; read-out: CEN IC50
influenza virus = assay: microbe, parasite or virus in culture; assay type: cell-based, influenza virus (MDBK or MDCK cells); conditions: unidentified influenza virus, 72 h, read-out: CPE EC50, effective concentration to achieve 50% CPE inhibition, 3 days incubation, WST-8

Structure (SMILES)	IC50 [1]	EC50 (influenza virus)
O=C1c2c(O)c(=O)ccn2N(C2c3ccccc3CCc3ccccc32)CN1Cc1nccs1 [Example 271]	73 nM	102 nM
CN1CN(C2c3ccccc3CCc3ccccc32)n2ccc(=O)c(O)c2C1=O [Example 273]	16 nM	84 nM
O=C1c2c(O)c(=O)ccn2N(C2c3ccccc3CCc3ccccc32)CN1CCOC(F)(F)F [Example 277]	39 nM	71 nM
COc1ccc2c(c1)CCc1ccccc1C2N1CN(C(C)C)C(=O)c2c(O)c(=O)ccn21 (stereo not drawn) [Example 278]	205 nM	74 nM
CC(C)N1CN(C2c3cc(Cl)ccc3CCc3ccc(Cl)cc32)n2ccc(=O)c(O)c2C1=O [Example 280]	68 nM	145 nM
CC(C)N1CN(C2c3cccc(F)c3CCc3c(F)cccc32)n2ccc(=O)c(O)c2C1=O [Example 281]	26 nM	18 nM
CC(C)N1CN(C2c3ccccc3CCc3cc(Cl)ccc32)n2ccc(=O)c(O)c2C1=O (stereo not drawn) [Example 283]	28 nM	21 nM
CC(C)N1CN(C2c3cc(F)ccc3SCc3c(Cl)cccc32)n2ccc(=O)c(O)c2C1=O (stereo not drawn) [Example 285]	44 nM	17 nM
O=C1c2c(O)c(=O)ccn2N(C2c3ccccc3CSc3ccccc32)CN1[C@@H]1CCN(CCOCc2ccccc2)C1 (stereo partly drawn) [Example 286]	161 nM	121 nM
CN1CC[C@@H](N2CN(C3c4ccccc4CSc4ccccc43)n3ccc(=O)c(O)c3C2=O)C1 (stereo partly drawn) [Example 287]	154 nM	268 nM
CN1CCC(N2CN(C3c4ccccc4CSc4ccccc43)n3ccc(=O)c(O)c3C2=O)CC1 (stereo not drawn) [Example 288]	299 nM	85 nM
O=C1c2c(O)c(=O)ccn2N(C2c3ccccc3CSc3ccccc32)CN1[C@@H]1CCN(CCO)C1 (stereo partly drawn) [Example 290]	67 nM	492 nM
CN1CCCC(N2CN(C3c4ccccc4CSc4ccccc43)n3ccc(=O)c(O)c3C2=O)C1 (stereo not drawn) [Example 293]	290 nM	437 nM
O=C1c2c(O)c(=O)ccn2N(C2c3ccccc3CSc3ccccc32)CN1CC(F)F (stereo not drawn) [Example 294]	35 nM	18 nM
Cc1nnc(CN2CN(C3c4ccccc4CSc4ccccc43)n3ccc(=O)c(O)c3C2=O)o1 (stereo not drawn) [Example 295]	52 nM	334 nM
COc1ccc(N2CN(C3c4ccccc4CSc4ccccc43)n3ccc(=O)c(O)c3C2=O)cc1 (stereo not drawn) [Example 296]	130 nM	397 nM
COCCN1CN(C2c3ccccc3CSc3ccccc32)n2ccc(=O)c(O)c2C1=O (stereo not drawn) [Example 299]	50 nM	15 nM
COCC(C)N1CN(C2c3ccccc3CSc3ccccc32)n2ccc(=O)c(O)c2C1=O (stereo not drawn) [Example 300]	58 nM	21 nM
O=C1c2c(O)c(=O)ccn2N(C2c3ccccc3CSc3ccccc32)CN1C1CC1 (stereo not drawn) [Example 302]	35 nM	14 nM
O=C1c2c(O)c(=O)ccn2N(C2c3ccccc3CSc3ccccc32)CN1CCF (stereo not drawn) [Example 304]	18 nM	15 nM
Cc1cc(CN2CN(C3c4ccccc4CSc4ccccc43)n3ccc(=O)c(O)c3C2=O)no1 (stereo not drawn) [Example 305]	59 nM	103 nM
O=C1c2c(O)c(=O)ccn2N(C2c3ccccc3CSc3ccccc32)CN1Cc1ccccn1 (stereo not drawn) [Example 307]	52 nM	95 nM
CC(C)(C)N1CN(C2c3ccccc3CSc3ccccc32)n2ccc(=O)c(O)c2C1=O (stereo not drawn) [Example 308]	72 nM	19 nM
CCN1CN(C2c3ccccc3CSc3ccccc32)n2ccc(=O)c(O)c2C1=O (stereo not drawn) [Example 309]	40 nM	13 nM

Structure (SMILES)	IC50 [1]	EC50 (influenza virus)
CS(=O)(=O)CCN1CN(C2c3ccccc3CSc3ccccc32)n2ccc(=O)c(O)c2C1=O (stereo not drawn) [Example 310]	108 nM	522 nM
COCCCN1CN(C2c3ccccc3CSc3ccccc32)n2ccc(=O)c(O)c2C1=O (stereo not drawn) [Example 311]	40 nM	26 nM
C[C@H](N1CN(C2c3ccccc3CSc3ccccc32)n2ccc(=O)c(O)c2C1=O)C(C)(C)C (stereo partly drawn) [Example 314]	149 nM	26 nM
Cc1noc(CN2CN(C3c4ccccc4CSc4ccccc43)n3ccc(=O)c(O)c3C2=O)n1 (stereo not drawn) [Example 315]	57 nM	115 nM
O=C1c2c(O)c(=O)ccn2N(C2c3ccccc3CSc3ccccc32)CN1Cc1nccs1 (stereo not drawn) [Example 316]	69 nM	83 nM
COC[C@H](C)N1CN(C2c3ccccc3CSc3ccccc32)n2ccc(=O)c(O)c2C1=O (stereo partly drawn) [Example 317]	48 nM	17 nM
C[C@@H](N1CN(C2c3ccccc3CSc3ccccc32)n2ccc(=O)c(O)c2C1=O)C(C)(C)C (stereo partly drawn) [Example 320]	45 nM	11 nM
O=C1c2c(O)c(=O)ccn2N(C2c3ccccc3CSc3ccccc32)CN1C(CF)CF (stereo not drawn) [Example 322]	113 nM	28 nM
O=C1c2c(O)c(=O)ccn2N(C2c3ccccc3CSc3ccccc32)CN1[C@@H]1C[C@@H]1F (stereo partly drawn) [Example 323]	77 nM	19 nM
O=C1c2c(O)c(=O)ccn2N(C2c3ccccc3CSc3ccccc32)CN1C1CC(F)(F)C1 (stereo not drawn) [Example 324]	107 nM	35 nM
CC(C)N1CN(C2c3ccccc3CSc3cc(Cl)ccc32)n2ccc(=O)c(O)c2C1=O (stereo not drawn) [Example 327]	92 nM	24 nM
CC(C)N1CN(C2c3ccccc3CSc3ccc(F)cc32)n2ccc(=O)c(O)c2C1=O (stereo not drawn) [Example 329]	58 nM	23 nM
CCN1CN(C2c3ccccc3CSc3c(Cl)cccc32)n2ccc(=O)c(O)c2C1=O (stereo not drawn) [Example 330]	26 nM	19 nM
CN1CN(C2c3ccccc3CSc3ccc(Cl)cc32)n2ccc(=O)c(O)c2C1=O (stereo not drawn) [Example 331]	45 nM	335 nM
COCCN1CN(C2c3ccccc3CSc3ccc(Cl)cc32)n2ccc(=O)c(O)c2C1=O (stereo not drawn) [Example 333]	21 nM	425 nM
COCCN1CN(C2c3ccccc3CSc3cc(Cl)ccc32)n2ccc(=O)c(O)c2C1=O (stereo not drawn) [Example 334]	75 nM	32 nM
COCCN1CN(C2c3ccccc3CSc3c(Cl)cccc32)n2ccc(=O)c(O)c2C1=O (stereo not drawn) [Example 335]	19 nM	16 nM
COCCN1CN(C2c3ccccc3CSc3cc(F)ccc32)n2ccc(=O)c(O)c2C1=O (stereo not drawn) [Example 337]	58 nM	28 nM
COCCN1CN(C2c3ccccc3CSc3ccc(F)cc32)n2ccc(=O)c(O)c2C1=O (stereo not drawn) [Example 338]	74 nM	85 nM
O=C1c2c(O)c(=O)ccn2N(C2c3ccccc3CSc3c(Cl)cccc32)CN1C1CC1 (stereo not drawn) [Example 341]	16 nM	27 nM
CC(N1CN(C2c3ccccc3CSc3c(Cl)cccc32)n2ccc(=O)c(O)c2C1=O)C(F)(F)F (stereo not drawn) [Example 343]	122 nM	18 nM
CC(C)N1CN(C2c3cc(F)ccc3CSc3ccc(F)cc32)n2ccc(=O)c(O)c2C1=O (stereo not drawn) [Example 346]	28 nM	18 nM
CN1CN(C2c3ccccc3CSc3c(Cl)cccc32)n2ccc(=O)c(O)c2C1=O (stereo not drawn) [Example 347]	14 nM	17 nM
CN1CN(C2c3ccccc3CSc3ccc(F)cc32)n2ccc(=O)c(O)c2C1=O (stereo not drawn) [Example 349]	53 nM	75 nM
